What was measured:
[1] = biological target: human FTD Type A sarkosyl-insoluble brain extracts (Homo sapiens, UniProt Q13148); test: Kd determination by micro-radiobinding assay on FTD Type A extracts; format: binding; conditions: tritiated compound 1.29 to 300 nM
Description: Human brain extracts were prepared as described in Laferriere et al., 2019, Nature Neurosc. A sample of brain tissue (frontal or temporal cortex) was homogenized at 1:4 (w/v) ratio in the homogenization-solubilization (HS) buffer at 4° C. using tissue homogenizer (Precellys) with CKmix homogenization tubes. The following sequence was used for homogenization: 3 cycles of 30 seconds at 5000 rpm (with 15 seconds pause between each cycle). Homogenized samples were aliquoted and stored at −80° C. in 1.5 mL low protein binding tubes.
Brain homogenates were thawed on ice and resuspended in HS buffer to obtain a final concentration of 2% sarkosyl, 1 unit/μL Benzonase and 1 mM MgCl2. The samples were then incubated at 37° C. under constant shaking at 600 rpm on a thermomixer for 45 minutes (min). The supernatants were collected in a new tube (sarkosyl-soluble fraction, S1). The pellet was resuspended in 1000 μL of myelin floatation buffer and centrifuged at 20,000 g for 60 min at 4° C. The supernatant was carefully removed to remove all the floating lipids. This step was repeated if all the lipids could not be removed in a single step. The pellet was subsequently washed with Phosphate-Buffered Saline (PBS) and centrifuged for 30 min at 20,000 g at 4° C. The final pellet was resuspended in 200 μL PBS and stored at −80° C. (sarkosyl-insoluble fraction). The samples were analyzed by immunoblotting in denaturing conditions.
Human FTD sarkosyl-insoluble brain extracts were spotted onto microarray slides. The slides were incubated with [^3H]-Compounds 1, 7, 8, 9, 15, 16 and 17 in a range of concentrations, varying from 1.29 to 300 nM. After incubation, slides were washed and scanned by a real-time autoradiography system (BeaQuant, ai4R). Quantification of the signal was performed by using the Beamage image analysis software (ai4R). Non-specific signal was determined with an excess of non-radiolabeled compound 1, 7, 8, 9, 15, 16 and 17 (1 μM), respectively, and specific binding was calculated by subtracting the non-specific signal from the total signal.
The Kd (Dissociation constant) and R^2 (parameter ranging between 0.0 and 1.0 that quantifies the goodness of fit, and the best curve fit obtained with value of 1.0) were obtained by fitting the specific binding data with non-linear regression analysis, using a one-site specific binding model in GraphPad Prism8.

[2] = biological target: TDP-43 aggregates (Homo sapiens, UniProt Q13148); test: Micro-autoradiography staining in brain sections from patients with FTD; format: binding; set-up: from tissue; host or cells: frozen post-mortem human brain sections (FTLD-TDP type A and type B; non-demented controls in the classical autoradiography); conditions: FTLD-TDP type A brain sections; 120 nM
Sequence of TDP-43 aggregates (Q13148 whole entry): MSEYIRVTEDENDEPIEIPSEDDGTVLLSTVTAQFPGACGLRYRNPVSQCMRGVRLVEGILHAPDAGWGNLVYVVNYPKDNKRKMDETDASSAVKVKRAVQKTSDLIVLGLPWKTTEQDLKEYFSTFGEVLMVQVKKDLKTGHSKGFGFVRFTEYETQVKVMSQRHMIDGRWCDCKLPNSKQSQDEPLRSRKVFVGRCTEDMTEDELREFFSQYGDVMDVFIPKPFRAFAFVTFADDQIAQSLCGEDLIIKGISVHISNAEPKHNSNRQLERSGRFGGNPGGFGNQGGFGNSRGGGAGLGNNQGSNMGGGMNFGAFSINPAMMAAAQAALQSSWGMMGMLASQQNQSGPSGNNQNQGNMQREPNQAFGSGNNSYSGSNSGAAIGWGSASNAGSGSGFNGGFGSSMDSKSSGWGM
Description: All tissues were collected from donors for or from whom a written informed consent for a brain autopsy and the use of the material and clinical information for research purposes had been obtained by the respective brain banks. All samples were anonymized and coded. Frozen brain tissue blocks with confirmed TDP-43 pathology upon autopsy were processed using a cryotome to generate sections of 10 μm in thickness and mounted on glass slides. Sections were kept at −80° C. until use.
Brain sections were immunostained using a commercially available antibody, specific for phosphorylated serine at amino acid 409/410 (anti-pTDP-43 pS409/410, Biolegend, 829901). Sections were fixed for 15 minutes at 4° C. with 4% formaldehyde (Sigma, 252549) and washed three times for height minutes with 1×PBS (Dulbecco's phosphate buffered saline, Sigma D1408) at room temperature. Next, sections were saturated and permeabilized in blocking buffer (PBS, 10% normal goat serum (NGS), 0.25% Triton X-100) for one hour at room temperature and incubated overnight at 4° C. with primary antibody against pTDP-43 (diluted at 1/500 in PBS, 5% NGS, 0.25% Triton X-100). The following day, sections were washed three times for height minutes with 1×PBS before incubation with a secondary, AlexaFluor633-labeled goat-anti-rat antibody (Invitrogen, A-21094, diluted at 1/500 in PBS) for 45 minutes at room temperature. Following incubation with […] antibodies the sections were washed three times in PBS before being processed further.
For micro-autoradiography, tritiated test compound ([^3H]-Compound 1, [^3H]-Compound 9 or [^3H]-Compound 17 respectively) was incubated on the sections at 120 nM in 50 mM Tris buffer pH 7.4 for 45 minutes at room temperature. Sections were then washed as follows: once in ice-cold 50 mM Tris-HCl pH 7.4 buffer for one minute, twice in ice-cold 70% ethanol for one minute, once in ice-cold 50 mM Tris-HCl pH 7.4 buffer for one minute and finally rinsed briefly in ice-cold distilled water. Sections were subsequently dried for one hour under a stream of air and then exposed to Ilford Nuclear Emulsion Type K5 (Agar Scientific, AGP9281) for ten days at 4° C. in a light-proof slide storage box. The sections were developed by immersing them successively in the following solutions: 1.) Ilford Phenisol Developer (1:5 dilution in H2O, Agar Scientific, AGP9106) for four minutes, 2.) Ilfostop solution (1:20 dilution in H2O, Agar Scientific, AGP9104) for two minutes, 3.) Ilford Hypam Fixer (1:5 dilution in H2O, Agar Scientific, AGP9183) for four minutes and finally rinsed with H2O for 10 minutes.
For image acquisition, sections were mounted using ProLong Gold Antifade reagent (Invitrogen P36930) and imaged on a Panoramic250 Slide Scanner (3DHistech) with a 40× objective capturing brightfield and fluorescent images separately or on a Panoramic Scan II (3DHistech) with a 20× objective. The Visiopharm image analysis software suite was used to align the fluorescent image with the brightfield image.

Sequence of human FTD Type A sarkosyl-insoluble brain extracts (Q13148 263-414 limits assumed): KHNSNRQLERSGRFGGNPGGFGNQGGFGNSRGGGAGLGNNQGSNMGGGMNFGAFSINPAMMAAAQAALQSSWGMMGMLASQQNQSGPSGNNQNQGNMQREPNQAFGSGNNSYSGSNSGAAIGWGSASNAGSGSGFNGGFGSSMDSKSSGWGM

Kd [1]: 26 nM | Micro-autoradiography silver grain signal versus pTDP-43 immunostaining [2]: colocalization with pTDP-43 aggregates
SMILES: [3H]c1cncc(N2CCc3nc(-c4cc([3H])c(N5CCCC5)nc4F)sc3C2=O)c1 [[^3H]-Compound 9, Tritiated 2-(2-fluoro-6-(pyrrolidin-1-yl)pyridin-3-yl)-5-(pyridin-3-yl)-6,7-dihydrothiazolo[5,4-c]pyridin-4(5H)-one]
